# Assay results: US20070027143A1, “Novel substituted 2,3-benzodiazepine derivatives” (priority 2003, published 2007)
# Read-outs that look alike come from different tables or passages of the source. Marks after values point to notes of the source that are not given here.
# Experiments:
# [1] = system: Lewis rats; assay: Autoimmune encephalomyelitis model, neurological (clinical) symptoms; type: in vivo; details: for Neurological symptoms (change, %): day 24 after immunization; for change in vivo at 0.2 mg/kg / change in vivo at 0.5 mg/kg / change in vivo at 1 mg/kg / change in vivo at 1.875 mg/kg / change in vivo at 3.75 mg/kg / change in vivo at 15 mg/kg / change in vivo at 30 mg/kg: Rattus norvegicus, read-out: Neurological symptoms (change compared to controls, %); for change in vivo at 15 mg/kg: 15 mg/kg ip.
# [2] = system: CD1 mice; assay: Anticonvulsant activity, maximal electroshock seizure (MES) test; type: in vivo; details: Mus musculus, po.
# [3] = system: Lewis rats; assay: Autoimmune encephalomyelitis model, histological symptoms; type: in vivo; details: day 24 after immunization; for Histological symptoms (change, %): 30 mg/kg ip.
# Description: 5-15 animals were used in each group. Their weights were 160-180 g (Lewis rats, female) and 180-220 g (Lewis rats, male). The activity of the compounds was determined according to the symptom score values, and compared to those of the control group (see Table 6). Histopathological investigations were carried out on the brain stem, the spinal cord, and the sciatic nerve (Gijbels et al., J. Clin. Invest. 94:2177 (1994)) using 5-10 animal/group.
# Compounds of the invention were further investigated in the autoimmune encephalomyelitis model in rats as outlined in this description before, with the variance that 10 animals were used in each group, of weights 140-160 g (Lewis rats, female).
# [4] = system: CD1 mice; assay: Anti-tremor effect, GYKI 20039 induced tremor; type: in vivo; details: Mus musculus; po., Litchfield-Wilcoxon, limits in brackets; read-out: ED50, tremor induced by GYKI 20039 10 mg/kg ip.
# [5] = system: CD1 mice; assay: Anticonvulsant activity, 4-aminopyridine induced seizures; type: in vivo; details: Mus musculus; po.; read-out: 4-AP ED50
# In short: (§1)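 Male CD1 mice (10 per dose) received test compounds orally at three dose levels, usually 60 min before chemical induction of clonic-tonic seizures and lethality.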
# [6] = system: AMPA/kainate receptors; assay: Inhibition of AMPA induced whole-cell current in acutely isolated cerebellar Purkinje cells (patch clamp); type: cell-based; details: 5 μM AMPA, read-out: Inhibition of the ion-currents caused by 5 μM AMPA, IC50
# In short: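 Whole-cell patch-clamp on acutely isolated cerebellar Purkinje cells; current evoked by 5 μM AMPA, with compound activity measured as inhibition of this AMPA-induced current.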
# [7] = system: AMPA receptors; assay: Inhibition of AMPA induced spreading depression in isolated chicken retina; type: cell-based; details: AMPA (5 μM)
# In short: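 Isolated chicken retina; spreading depression evoked by 5 μM AMPA. Antagonism read as prolongation of the latency to spreading-depression onset.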
# [8] = system: CD1 mice; assay: Anticonvulsant activity, pentetrazole induced seizures; type: in vivo; details: Mus musculus; po.; read-out: Pentetrazol ED50
# In short: as §1
# [9] = system: BN rats; assay: Airway eosinophilia of ovalbumin sensitized, antigen challenged BN rats (BALF eosinophil count); type: in vivo; details: 3.0 mg/kg po, 2 hours pre-challenge, mean ± SE
# Source text: Bronchial hyperresponsiveness (BHR) and airway eosinophilia (AEP) are characteristic features of bronchial asthma. BHR is typified by an exaggerated response to a wide variety of stimuli that can induce an increased resistance to airflow in the airways. AEP is a result of prolonged eosinophil infiltration, mast cell, and T cell activation in the airways. In actively (e.g., ovalbumin) immunized rats (e.g., Brown Norway [BN] strain), repeated sensitization followed by antigenic challenge results in lung eosinophilia and bronchial hyperresponsiveness to different spasmogens (e.g., acetylcholine). This is the most frequently employed model for studying potential anti-asthmatic effects of new chemical entities.
# BN rats were actively immunized with allergen (ovalbumin). On day one, rats were sensitized with the subcutaneous administration of ovalbumin suspended in Al(OH)3 (2.5 μg ovalbumin +20 mg Al(OH)3 in 0.5 ml saline). Booster injections (same dose and same route) were given at day 14 and 21. Simultaneously at each occasion 0.25 ml of Bordatella pentussis vaccine was injected intraperitoneally. On day 28, animals were challenged by inhalation of the antigen (vaporized 1% OVA solution for 1 hour). Test compounds were administered orally 2 hours pre-challenge.
# 48 hours following challenge, they were sacrificed by an overdose of urethane (4-5 ml of 15% urethane given i.p.), bronchoalveolar lavage fluid (BALF) was obtained, and tracheae dissected from the animals. Eosinophil cell count (cells/ml BALF) was determined manually using a selective stain for eosinophils and counting the cells in a Buerker chamber. BHR was determined using tracheal rings suspended in an organ bath. After an equilibration period of 30 minutes, cumulative concentration response curves to acetylcholine were determined. Maximal response of control (unchallenged, non-treated) tracheal rings is obtained at 10^−3 M acetylcholine. The height of this response is defined as 100%. All other contractions are expressed as a percentage and related to the control response.
# [10] = system: CD1 mice; assay: Muscle relaxant activity, rotarod test; type: in vivo; details: Mus musculus, ip
# [11] = 0.5 h, 30′, read-out: MES 30′ ED50
# [12] = 1 h, 60 min before induction, read-out: MES (MES 60′) ED50
structure (smiles),measurement,setting,value
"Cc1nnc(N2N=C(c3ccc(N)c(C)c3)c3cc4c(cc3C[C@H]2C)OCO4)s1 [Example 119, (R)-5-(4-amino-3-methylphenyl)-8-methyl-7-(5-methyl-1,3,4-thiadiazol-2-yl)-8,9-dihydro-7H-1,3-dioxolo-[4,5-h][2,3]benzodiazepine]","Neurological symptoms (change, %)","[1]; 0.2 mg/kg i.p., female rats",−37%
same,"Neurological symptoms (change, %)","[1]; 0.5 mg/kg i.p., female rats",−35%
same,"Neurological symptoms (change, %)","[1]; 0.5 mg/kg p.o., female rats",−1%
same,"Neurological symptoms (change, %)","[1]; 1.0 mg/kg i.p., female rats",−72** %
same,"Neurological symptoms (change, %)","[1]; 1.0 mg/kg p.o., female rats",−23%
same,"Neurological symptoms (change, %)","[1]; 1.875 mg/kg ip., female rats",−71** %
same,"Neurological symptoms (change, %)","[1]; 1.875 mg/kg p.o., female rats",−50** %
same,"Neurological symptoms (change, %)","[1]; 3.75 mg/kg ip., female rats",−90** %
same,"Neurological symptoms (change, %)","[1]; 3.75 mg/kg p.o., female rats",−61*** %
same,change in vivo at 0.2 mg/kg,"[1]; ip, 0.2 mg/kg i.p., female rats, 0-8 day",-36%
same,change in vivo at 0.2 mg/kg,"[1]; ip, 0.2 mg/kg i.p., female rats, 0-14 day",-37%
same,change in vivo at 0.5 mg/kg,"[1]; ip, 0.5 mg/kg i.p., female rats, 0-8 day",-33%
same,change in vivo at 0.5 mg/kg,"[1]; ip, 0.5 mg/kg i.p., female rats, 0-14 day",-35%
same,change in vivo at 1 mg/kg,"[1]; ip, 1.0 mg/kg i.p., female rats, 0-8 day",-75%
same,change in vivo at 1 mg/kg,"[1]; ip, 1.0 mg/kg i.p., female rats, 0-14 day",-72%
same,change in vivo at 1.875 mg/kg,"[1]; ip, 1.875 mg/kg ip., female rats, 0-8 day",-72%
same,change in vivo at 1.875 mg/kg,"[1]; ip, 1.875 mg/kg ip., female rats, 0-14 day",-71%
same,change in vivo at 3.75 mg/kg,"[1]; ip, 3.75 mg/kg ip., female rats, 0-8 day",-97%
same,change in vivo at 3.75 mg/kg,"[1]; ip, 3.75 mg/kg ip., female rats, 0-14 day",-90%
same,change in vivo at 0.5 mg/kg,"[1]; po, 0.5 mg/kg p.o., female rats, 0-8 day",2%
same,change in vivo at 0.5 mg/kg,"[1]; po, 0.5 mg/kg p.o., female rats, 0-14 day",-1%
same,change in vivo at 1 mg/kg,"[1]; po, 1.0 mg/kg p.o., female rats, 0-8 day",-20%
same,change in vivo at 1.875 mg/kg,"[1]; po, 1.875 mg/kg p.o., female rats, 0-8 day",-50%
same,change in vivo at 1.875 mg/kg,"[1]; po, 1.875 mg/kg p.o., female rats, 0-14 day",-50%
same,ED50,[2]; [11],2.15 mg/kg
same,ED50,[2]; [12],2.87 mg/kg
same,Histopathological symptoms (change %),"[3]; 0.2 mg/kg i.p., female rats",+2%
same,Histopathological symptoms (change %),"[3]; 0.5 mg/kg i.p., female rats",−13%
same,Histopathological symptoms (change %),"[3]; 0.5 mg/kg p.o., female rats",−16%
same,Histopathological symptoms (change %),"[3]; 1.0 mg/kg i.p., female rats",−3%
same,Histopathological symptoms (change %),"[3]; 1.0 mg/kg p.o., female rats",−21%
same,"Histological (histopathological) symptoms (change, %)","[3]; 1.875 mg/kg ip., female rats",−8%
same,Histopathological symptoms (change %),"[3]; 1.875 mg/kg p.o., female rats",−42%
same,"Histological (histopathological) symptoms (change, %)","[3]; 3.75 mg/kg ip., female rats",+3%
same,Histopathological symptoms (change %),"[3]; 3.75 mg/kg p.o., female rats",−32%
same,ED50,[4],2.21 mg/kg
same,ED50,[5],2.68 mg/kg
same,IC50,[6],26 nM
same,IC50,[7],69 nM
same,ED50,[8],5 mg/kg
same,BALF eosinophil number,[9],1.16 ± 0.24 ×10^6/ml
same,ED50,[10],0.51 mg/kg
"CC(=O)N1N=C(c2ccc(N)cc2)c2cc3c(cc2C[C@H]1C)OCO3 [GYKI 53773, (R)-7-acetyl-5-(4-aminophenyl)-8,9-dihydro-8-methyl-7H-1,3-dioxolo[4,5-h][2,3]benzodiazepine, reference compound]","Neurological symptoms (change, %)","[1]; 30 mg/kg ip., female rats",−41%
same,"Neurological symptoms (change, %)","[1]; 30 mg/kg ip., male rats",−26%
same,change in vivo at 15 mg/kg,"[1]; ip, female rats, 0-8 day",-60%
same,change in vivo at 15 mg/kg,"[1]; ip, female rats, 0-14 day",-63%
same,change in vivo at 15 mg/kg,"[1]; ip, male rats, 0-8 day",-8%
same,change in vivo at 15 mg/kg,"[1]; ip, male rats, 0-14 day",7%
same,change in vivo at 30 mg/kg,"[1]; ip, 30 mg/kg ip., female rats, 0-8 day",-38%
same,change in vivo at 30 mg/kg,"[1]; ip, 30 mg/kg ip., female rats, 0-14 day",-27%
same,change in vivo at 30 mg/kg,"[1]; ip, 30 mg/kg ip., male rats, 0-8 day",-43%
same,change in vivo at 30 mg/kg,"[1]; ip, 30 mg/kg ip., male rats, 0-14 day",-29%
same,ED50,[2]; [11],4.9 mg/kg
same,ED50,[2]; [12],8.6 mg/kg
same,"Histological symptoms (change, %)",[3]; female rats,−16%
same,"Histological symptoms (change, %)",[3]; male rats,+34%
same,ED50,[4],10.6 mg/kg
same,ED50,[5],8.4 mg/kg
same,IC50,[6],1570 nM
same,IC50,[7],1200 nM
same,ED50,[8],16.8 mg/kg
same,BALF eosinophil number,[9],1.29 ± 0.11 ×10^6/ml
same,ED50,[10],2.3 mg/kg
